In the supplement of paper PMC5908809:

Assays:
[1] = test system: normal NK cells expanded with K562-aAPC; test: percent inhibition of viability; higher = more inhibition; details: 72 h, IL-2 2.5 ng/mL
Protocol: (§1)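 Drug sensitivity and resistance testing on K562-aAPC-expanded normal NK cells: 5 concentrations (10-fold steps over a 10,000-fold range), 72 h at 37 °C, viability by CellTiter-Glo normalised to DMSO and benzethonium chloride controls; DSS from the fitted curve.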

NKL (IL-2 2.5 ng/mL) [2] = test: drug sensitivity score (DSS) (DSS units); higher = more sensitive; extreme values may be limits of the assay; details: 72 h
NK-YS (IL-2 2.5 ng/mL) [3] = test: as above; details: 72 h
[4] = test system: normal primary NK cells, pool 1 (3 donors) (IL-2 2.5 ng/mL); test: as above; details: 72 h
DERL-7 (IL-2 2.5 ng/mL) [5] = test: as above; details: 72 h
[6] = test system: normal primary NK cells, pool 2 (3 donors) (IL-2 2.5 ng/mL); test: as above; details: 72 h
[7] = test system: normal primary NK cells, pool 3 (3 donors) (IL-2 2.5 ng/mL); test: as above; details: 72 h
[8] = test system: normal primary NK cells, pool 1 (3 donors), resting (IL-2 0 ng/mL); test: as above; details: 72 h
KAI3 (IL-2 2.5 ng/mL) [9] = test: as above; details: 72 h
YT (IL-2 2.5 ng/mL) [10] = test: as above; details: 72 h
SNK-6 (IL-2 2.5 ng/mL) [11] = test: as above; details: 72 h
KHYG-1 (IL-2 2.5 ng/mL) [12] = test: as above; details: 72 h
NK-92 (IL-2 2.5 ng/mL) [13] = test: as above; details: 72 h
IMC-1 (IL-2 20 ng/mL) [14] = test: as above; details: 72 h
NKL (IL-2 2.5 ng/mL) [15] = test: percent inhibition of viability; higher = more inhibition; details: 72 h
NK-YS (IL-2 2.5 ng/mL) [16] = test: as above; details: 72 h
[17] = test system: normal primary NK cells, pool 1 (3 donors) (IL-2 2.5 ng/mL); test: as above; details: 72 h
DERL-7 (IL-2 2.5 ng/mL) [18] = test: as above; details: 72 h
[19] = test system: normal primary NK cells, pool 2 (3 donors) (IL-2 2.5 ng/mL); test: as above; details: 72 h
[20] = test system: normal primary NK cells, pool 3 (3 donors) (IL-2 2.5 ng/mL); test: as above; details: 72 h
[21] = test system: normal primary NK cells, pool 1 (3 donors), resting (IL-2 0 ng/mL); test: as above; details: 72 h
KAI3 (IL-2 2.5 ng/mL) [22] = test: as above; details: 72 h
YT (IL-2 2.5 ng/mL) [23] = test: as above; details: 72 h
SNK-6 (IL-2 2.5 ng/mL) [24] = test: as above; details: 72 h
KHYG-1 (IL-2 2.5 ng/mL) [25] = test: as above; details: 72 h
NK-92 (IL-2 2.5 ng/mL) [26] = test: as above; details: 72 h
IMC-1 (IL-2 20 ng/mL) [27] = test: as above; details: 72 h
[28] = test system: normal NK cells expanded with K562-aAPC; test: drug sensitivity score (DSS) (DSS units); higher = more sensitive; extreme values may be limits of the assay; details: 72 h; IL-2 2.5 ng/mL
Protocol: as §1

Nc1nc(Cl)nc2c1ncn2[C@@H]1O[C@H](CO)[C@@H](O)[C@@H]1F [Clofarabine] (max concentration tested 10000 nM)
percent inhibition of viability [%]
Details	1 nM	10 nM	100 nM	1000 nM	10000 nM
DERL-7 (IL-2 2.5 ng/mL) [18]	-6.34	12.4	98.8	100	100
IMC-1 (IL-2 20 ng/mL) [27]	-5.2	-10.7	83.5	99.8	100
KAI3 (IL-2 2.5 ng/mL) [22]	-5.93	2	84.8	100	103
KHYG-1 (IL-2 2.5 ng/mL) [25]	-5.63	-3.93	98.4	101	102
NK-92 (IL-2 2.5 ng/mL) [26]	-17	2.38	98.2	101	104
NK-YS (IL-2 2.5 ng/mL) [16]	-2.94	-3.43	73.3	96.5	100
NKL (IL-2 2.5 ng/mL) [15]	-14.3	-3.55	97.4	102	105
SNK-6 (IL-2 2.5 ng/mL) [24]	-9.36	-23.6	95	96.3	98.6
YT (IL-2 2.5 ng/mL) [23]	-2.64	-4.64	17.5	78.8	85.4
[1]	-7.69	10	99.8	100	101
[17]	1.34	32.7	95.2	96.8	97.6
[19]	1.6	18	90.5	95	96.2
[20]	-5.8	12.6	91	98.5	99.3
[21]	-1.53	61.1	92.3	90.6	93.4

Details	drug sensitivity score
DERL-7 (IL-2 2.5 ng/mL) [5]	32.5
IMC-1 (IL-2 20 ng/mL) [14]	27.6
KAI3 (IL-2 2.5 ng/mL) [9]	28
KHYG-1 (IL-2 2.5 ng/mL) [12]	29.9
NK-92 (IL-2 2.5 ng/mL) [13]	30.5
NK-YS (IL-2 2.5 ng/mL) [3]	26.4
NKL (IL-2 2.5 ng/mL) [2]	29.8
SNK-6 (IL-2 2.5 ng/mL) [11]	28.5
YT (IL-2 2.5 ng/mL) [10]	16.8
[4]	33.7
[6]	31
[7]	30.7
[8]	35.8
[28]	32.1

CCN(CC)CCOc1ccc(C(=C(Cl)c2ccccc2)c2ccccc2)cc1 [Clomifene] (max concentration tested 10000 nM)
percent inhibition of viability [%]
Details	1 nM	10 nM	100 nM	1000 nM	10000 nM
DERL-7 (IL-2 2.5 ng/mL) [18]	4.06	0.91	9.39	20.4	79.7
IMC-1 (IL-2 20 ng/mL) [27]	-0.71	-1.19	4.94	7.46	81.3
KAI3 (IL-2 2.5 ng/mL) [22]	3.86	7.81	10.3	17.6	99.2
KHYG-1 (IL-2 2.5 ng/mL) [25]	0.74	-4.89	7.01	8.03	98
NK-92 (IL-2 2.5 ng/mL) [26]	-3.93	-4.07	20.1	22.8	99.2
NK-YS (IL-2 2.5 ng/mL) [16]	-0.14	0.6	4.95	5.57	51.9
NKL (IL-2 2.5 ng/mL) [15]	9.73	-5.45	18.5	9.46	89.1
SNK-6 (IL-2 2.5 ng/mL) [24]	23.4	4.68	23.5	22.9	96.8
YT (IL-2 2.5 ng/mL) [23]	2.71	-4.92	7.54	1.85	97.5
[1]	-4.27	-4.95	6.21	5.94	49.9
[17]	-14.7	-1.65	-8.5	6.72	89.3
[19]	-3.18	-2.06	-0.72	14.9	80.9
[20]	2.17	1.82	-1.1	13.6	53.4
[21]	-1.08	10.5	-7.5	11	90.7

Details	drug sensitivity score
DERL-7 (IL-2 2.5 ng/mL) [5]	7.34
IMC-1 (IL-2 20 ng/mL) [14]	5.71
KAI3 (IL-2 2.5 ng/mL) [9]	8.38
KHYG-1 (IL-2 2.5 ng/mL) [12]	6.7
NK-92 (IL-2 2.5 ng/mL) [13]	8.7
NK-YS (IL-2 2.5 ng/mL) [3]	3.68
NKL (IL-2 2.5 ng/mL) [2]	6.51
SNK-6 (IL-2 2.5 ng/mL) [11]	8.37
YT (IL-2 2.5 ng/mL) [10]	5.67
[4]	5.98
[6]	6.93
[7]	4.97
[8]	6.86
[28]	3.63
